{
  "source": "patent US12258329B2",
  "about": "(Merck Sharp & Dohme LLC, priority 2018, dated 2025)",
  "system": "infected PBMCs (VSV-G pseudotyped HIV virus VSV-G/pNLG1-P2A-ΔEnv)",
  "experiment": "cells",
  "format": "cell-based, human",
  "conditions": "read-out: TACK EC50",
  "note": "Like-named read-outs stand apart in the source and are kept apart here.",
  "data": [
    {"molecule": "Cc1ncc(Cn2cnc(C(F)(F)C(F)F)c(Oc3cc(C(F)F)cc(C#N)c3C)c2=O)c(=O)[nH]1", "note": "[Example 70, 5-(difluoromethyl)-2-methyl-3-((1-((2-methyl-6-oxo-1,6-dihydropyrimidin-5-yl)methyl)-6-oxo-4-(1,1,2,2-tetra-fluoroethyl)-1,6-dihydropyrimidin-5-yl)oxy)benzonitrile]", "values": [
      {"measurement": "EC50", "setting": "Homo sapiens, PBMC", "value": 203, "unit": "nM"}
    ]},
    {"molecule": "Cc1nc(C)c(Cn2cnc(C(C)(F)F)c(Oc3c(C)cc(C#N)cc3C(F)(F)F)c2=O)c(=O)[nH]1", "note": "[Example 16, 4-((4-(1,1-difluoroethyl)-1-((4-hydroxy-2,6-dimethylpyrimidin-5-yl)methyl)-6-oxo-1,6-dihydropyrimidin-5-yl)oxy)-3-methyl-5-(trifluoromethyl)benzonitrile]", "values": [
      {"measurement": "EC50", "setting": "Homo sapiens, PBMC", "value": 199, "unit": "nM"}
    ]},
    {"molecule": "Cc1cc(C#N)c(C)c(Oc2c(Br)ncn(Cc3c(C)nc(C)[nH]c3=O)c2=O)c1", "note": "[Example 26, 3-((4-bromo-1-((2,4-dimethyl-6-oxo-1,6-dihydropyrimidin-5-yl)methyl)-6-oxo-1,6-dihydropyrimidin-5-yl)oxy)-2,5-dimethylbenzonitrile]", "values": [
      {"measurement": "EC50", "setting": "Homo sapiens, PBMC", "value": 413, "unit": "nM"}
    ]},
    {"molecule": "Cc1cc(C#N)cc(C)c1Oc1c(C(F)(F)C(F)F)ncn(Cc2c(C)nc(CCCO)[nH]c2=O)c1=O", "note": "[Example 50, 4-((1-((2-(3-hydroxypropyl)-4-methyl-6-oxo-1,6-dihydropyrimidin-5-yl)methyl)-6-oxo-4-(1,1,2,2-tetrafluoroethyl)-1,6-dihydropyrimidin-5-yl)oxy)-3,5-dimethylbenzonitrile]", "values": [
      {"measurement": "EC50", "setting": "Homo sapiens, PBMC", "value": 250, "unit": "nM"}
    ]},
    {"molecule": "Cc1nc(C)c(Cn2cnc(C(F)(F)C(F)(F)F)c(Oc3cccc(C#N)c3C)c2=O)c(=O)[nH]1", "note": "[Example 74, 3-((1-((2,4-dimethyl-6-oxo-1,6-dihydropyrimidin-5-yl)methyl)-6-oxo-4-(perfluoroethyl)-1,6-dihydropyrimidin-5-yl)oxy)-2-methylbenzonitrile]", "values": [
      {"measurement": "EC50", "setting": "Homo sapiens, PBMC", "value": 484, "unit": "nM"}
    ]},
    {"molecule": "Cc1nc(C)c(Cn2cnc(C(C)F)c(Oc3cc(Cl)cc(C#N)c3F)c2=O)c(=O)[nH]1", "note": "(single isomer, unassigned) [Example 30]", "values": [
      {"measurement": "EC50", "setting": "Homo sapiens, PBMC", "value": 206, "unit": "nM"}
    ]},
    {"molecule": "Cc1nc(C)c(Cn2cnc(C(C)F)c(Oc3cc(Cl)cc(C#N)c3Cl)c2=O)c(=O)[nH]1", "note": "(single isomer, unassigned) [Example 34, (S) or (R)-2,5-dichloro-3-((1-((2,4-dimethyl-6-oxo-1,6-dihydropyrimidin-5-yl)methyl)-4-(1-fluoroethyl)-6-oxo-1,6-dihydropyrimidin-5-yl)oxy)benzonitrile]", "values": [
      {"measurement": "EC50", "setting": "Homo sapiens, PBMC", "value": 474, "unit": "nM"}
    ]},
    {"molecule": "Cc1nc(C)c(Cn2cnc(C(F)(F)C(F)(F)F)c(Oc3cccc(C#N)c3F)c2=O)c(=O)[nH]1", "note": "[Example 85, 3-((1-((2,4-dimethyl-6-oxo-1,6-dihydropyrimidin-5-yl)methyl)-6-oxo-4-(perfluoroethyl)-1,6-dihydropyrimidin-5-yl)oxy)-2-fluorobenzonitrile]", "values": [
      {"measurement": "EC50", "setting": "Homo sapiens, PBMC", "value": 441, "unit": "nM"}
    ]},
    {"molecule": "COC(=O)CCc1nc(C)c(Cn2cnc(C(F)(F)C(F)(F)F)c(Oc3cc(Cl)cc(C#N)c3F)c2=O)c(=O)[nH]1", "note": "[Example 56, Methyl 3-(5-((5-(5-chloro-3-cyano-2-fluorophenoxy)-6-oxo-4-(perfluoroethyl)pyrimidin-1 (6H)-yl)methyl)-4-methyl-6-oxo-1,6-dihydropyrimidin-2-yl)propanoate]", "values": [
      {"measurement": "EC50", "setting": "Homo sapiens, PBMC", "value": 161, "unit": "nM"}
    ]},
    {"molecule": "(S) or (R)-3,5-dichloro-4-((1-((2,4- dimethyl-6-oxo-1,6-dihydropyrimidin- 5-y1)methyl)-4-(1-fluoroethyl)-6-oxo- 1,6-dihydropyrimidin-5-yl)oxy) benzonitrile [Example 17]", "values": [
      {"measurement": "EC50", "value": 282, "unit": "nM"}
    ]},
    {"molecule": "Cc1c(C#N)cc(C(F)F)cc1Oc1c(C(F)(F)C(F)F)ncn(Cc2cnc(N)[nH]c2=O)c1=O", "note": "[Example 57, 3-((1-((2-amino-6-oxo-1,6-dihydropyrimidin-5-yl)methyl)-6-oxo-4-(1,1,2,2-tetrafluoroethyl)-1,6-dihydropyrimidin-5-yl)oxy)-5-(difluoromethyl)-2-methylbenzonitrile]", "values": [
      {"measurement": "EC50", "setting": "Homo sapiens, PBMC", "value": 493, "unit": "nM"}
    ]},
    {"molecule": "Cc1nc(C)c(Cn2cnc(C(C)(F)F)c(Oc3cc(C(F)F)cc(C#N)c3C)c2=O)c(=O)[nH]1", "note": "[Example 6, 3-((4-(1,1-difluoroethyl)-1-((2,4-dimethyl-6-oxo-1,6-dihydropyrimidin-5-y1)methyl)-6-oxo-1,6-dihydropyrimidin-5-yl)oxy)-5-(difluoromethyl)-2-methylbenzonitrile]", "values": [
      {"measurement": "EC50", "setting": "Homo sapiens, PBMC", "value": 201, "unit": "nM"}
    ]},
    {"molecule": "Cc1nc(C)c(Cn2cnc(C(F)(F)C(F)F)c(Oc3cc(Cl)cc(C#N)c3N)c2=O)c(=O)[nH]1", "note": "[Example 27, 2-amino-5-chloro-3-((1-((2,4-dimethyl-6-oxo-1,6-dihydropyrimidin-5-yl)methyl)-6-oxo-4-(1,1,2,2-tetrafluoroethyl)-1,6-dihydropyrimidin-5-yl)oxy)benzonitrile]", "values": [
      {"measurement": "EC50", "setting": "Homo sapiens, PBMC", "value": 451, "unit": "nM"}
    ]},
    {"molecule": "Cc1nc(C)c(Cn2cnc(C(C)(F)F)c(Oc3c(C)cc(C#N)cc3C)c2=O)c(=O)[nH]1", "note": "[Example 11, 4-((4-(1,1-difluoroethyl)-1-((2,4-dimethyl-6-oxo-1,6-dihydropyrimidin-5-yl)methyl)-6-oxo-1,6-dihydropyrimidin-5-yl)oxy)-3,5-dimethylbenzonitrile]", "values": [
      {"measurement": "EC50", "setting": "Homo sapiens, PBMC", "value": 267, "unit": "nM"}
    ]},
    {"molecule": "Cc1nc(C)c(Cn2cnc(C(C)(F)F)c(Oc3cc(Cl)cc(C#N)c3Cl)c2=O)c(=O)[nH]1", "note": "[Example 3, 2,5-dichloro-3-((4-(1,1-difluoroethyl)-1-((2,4-dimethyl-6-oxo-1,6-dihydropyrimidin-5-yl)methyl)-6-oxo-1,6-dihydropyrimidin-5-yl)oxy)benzonitrile]", "values": [
      {"measurement": "EC50", "setting": "Homo sapiens, PBMC", "value": 417, "unit": "nM"}
    ]},
    {"molecule": "Cc1cc(C#N)c(F)c(Oc2c(C(C)(F)F)ncn(Cc3c(C)nc(C)[nH]c3=O)c2=O)c1", "note": "[Example 41, 3-((4-(1,1-difluoroethyl)-1-((2,4-dimethyl-6-oxo-1,6-dihydropyrimidin-5-yl)methyl)-6-oxo-1,6-dihydropyrimidin-5-yl)oxy)-2-fluoro-5-methylbenzonitrile]", "values": [
      {"measurement": "EC50", "setting": "Homo sapiens, PBMC", "value": 363, "unit": "nM"}
    ]},
    {"molecule": "Cc1nc(C)c(Cn2cnc(C(F)(F)C(F)(F)F)c(Oc3cc(C(F)F)cc(C#N)c3C)c2=O)c(=O)[nH]1", "note": "[Example 83]", "values": [
      {"measurement": "EC50", "setting": "Homo sapiens, PBMC", "value": 252, "unit": "nM"}
    ]},
    {"molecule": "Cc1nc(C)c(Cn2cnc(C(F)(F)C(F)F)c(Oc3c(Cl)cc(C#N)cc3Cl)c2=O)c(=O)[nH]1", "note": "[Example 97, 3,5-dichloro-4-((1-((2,4-dimethyl-6-oxo-1,6-dihydropyrimidin-5-yl)methyl)-6-oxo-4-(1,1,2,2-tetrafluoroethyl)-1,6-dihydropyrimidin-5-yl)oxy)benzonitrile]", "values": [
      {"measurement": "EC50", "setting": "Homo sapiens, PBMC", "value": 182, "unit": "nM"}
    ]},
    {"molecule": "Cc1nc(COc2ncccn2)[nH]c(=O)c1Cn1cnc(C(C)(F)F)c(Oc2cc(Cl)cc(C#N)c2F)c1=O", "note": "[Example 24, 5-chloro-3-((4-(1,1-difluoroethyl)-1-((4-methyl-6-oxo-2-((pyrimidin-2-yloxy)methyl)-1,6-dihydropyrimidin-5-yl)methyl)-6-oxo-1,6-dihydropyrimidin-5-yl)oxy)-2-fluorobenzonitrile]", "values": [
      {"measurement": "EC50", "setting": "Homo sapiens, PBMC", "value": 339, "unit": "nM"}
    ]},
    {"molecule": "COc1c(C#N)cc(C(F)F)cc1Oc1c(C(F)(F)C(F)F)ncn(Cc2cnc(C)[nH]c2=O)c1=O", "note": "[Example 1, 5-(difluoromethyl)-2-methoxy-3-((1-((2-methyl-6-oxo-1,6-dihydropyrimidin-5-yl)methyl)-6-oxo-4-(1,1,2,2-tetrafluoroethyl)-1,6-dihydropyrimidin-5-yl)oxy)benzonitrile]", "values": [
      {"measurement": "EC50", "setting": "Homo sapiens, PBMC", "value": 431, "unit": "nM"}
    ]},
    {"molecule": "Cc1nc(C)c(Cn2cnc(C(F)(F)CF)c(Oc3cc(C(F)F)cc(C#N)c3C)c2=O)c(=O)[nH]1", "note": "[Example 5, 5-(difluoromethyl)-3-((1-((2,6-dimethyl-4-oxo-4,5-dihydropyrimidin-5-yl)methyl)-6-oxo-4-(1,1,2-trifluoroethyl)-1,6-dihydropyrimidin-5-yl)oxy)-2-methylbenzonitrile]", "values": [
      {"measurement": "EC50", "setting": "Homo sapiens, PBMC", "value": 187, "unit": "nM"}
    ]},
    {"molecule": "Cc1nc(C)c(Cn2cnc(C(F)(F)C(F)(F)F)c(Oc3cc(Br)cc(C#N)c3)c2=O)c(=O)[nH]1", "note": "[Example 86, 3-bromo-5-((1-((2,4-dimethyl-6-oxo-1,6-dihydropyrimidin-5-yl)methyl)-6-oxo-4-(perfluoroethyl)-1,6-dihydro-pyrimidin-5-yl)oxy)benzonitrile]", "values": [
      {"measurement": "EC50", "setting": "Homo sapiens, PBMC", "value": 473, "unit": "nM"}
    ]},
    {"molecule": "COc1cc(C#N)cc(C)c1Oc1c(C(F)(F)C(F)(F)F)ncn(Cc2c(C)nc(C)[nH]c2=O)c1=O", "note": "[Example 76, 4-((1-((2,4-dimethyl-6-oxo-1,6-dihydropyrimidin-5-yl)methyl)-6-oxo-4-(perfluoroethyl)-1,6-dihydropyrimidin-5-yl)oxy)-3-methoxy-5-methylbenzonitrile]", "values": [
      {"measurement": "EC50", "setting": "Homo sapiens, PBMC", "value": 498, "unit": "nM"}
    ]},
    {"molecule": "Cc1nc(C)c(Cn2cnc(C(C)(F)F)c(Oc3cc(C(F)F)cc(C#N)c3F)c2=O)c(=O)[nH]1", "note": "[Example 15, 3-((4-(1,1-difluoroethyl)-1-((2,4-dimethyl-6-oxo-1,6-dihydropyrimidin-5-yl)methyl)-6-oxo-. 1,6-dihydropyrimidin-5-yl)oxy)-5-(difluoromethyl)-2-fluorobenzonitrile]", "values": [
      {"measurement": "EC50", "setting": "Homo sapiens, PBMC", "value": 245, "unit": "nM"}
    ]},
    {"molecule": "Cc1nc(C)c(Cn2cnc(C(C)F)c(Oc3c(C)cc(C#N)cc3Cl)c2=O)c(=O)[nH]1", "note": "(single isomer, unassigned) [Example 18, (S) or (R)-3-chloro-4-((1-((2,4-dimethyl-6-oxo-1,6-dihydropyrimidin-5-y1)methyl)-4-(1-fluoroethyl)-6-oxo-1,6-dihydropyrimidin-5-yl)oxy)-5-methylbenzonitrile]", "values": [
      {"measurement": "EC50", "setting": "Homo sapiens, PBMC", "value": 129, "unit": "nM"}
    ]},
    {"molecule": "Cc1nc(COc2ncccn2)[nH]c(=O)c1Cn1cnc(C(C)(F)F)c(Oc2cc(C(F)F)cc(C#N)c2C)c1=O", "note": "[Example 25, 3-((4-(1,1-difluoroethyl)-1-((4-methyl-6-oxo-2-((pyrimidin-2-yloxy)methyl)-1,6-dihydropyrimidin-5-yl)methyl)-6-oxo-1,6-dihydropyrimidin-5-yl)oxy)-5-(difluoromethyl)-2-methylbenzonitrile]", "values": [
      {"measurement": "EC50", "setting": "Homo sapiens, PBMC", "value": 353, "unit": "nM"}
    ]},
    {"molecule": "Cc1nc(C)c(Cn2cnc(C(C)F)c(Oc3cc(C(F)F)cc(C#N)c3F)c2=O)c(=O)[nH]1", "note": "(single isomer, unassigned) [Example 32, (S) or (R)-5-(difluoromethyl)-3-((1-((2,4-dimethyl-6-oxo-1,6-dihydropyrimidin-5-yl)methyl)-4-(1-fluoroethyl)-6-oxo-1,6-dihydropyrimidin-5-yl)oxy)-2-fluorobenzonitrile]", "values": [
      {"measurement": "EC50", "setting": "Homo sapiens, PBMC", "value": 171, "unit": "nM"}
    ]},
    {"molecule": "CCc1nc(C)[nH]c(=O)c1Cn1cnc(C(F)(F)C(F)F)c(Oc2cc(C(F)F)cc(C#N)c2C)c1=O", "note": "[Example 61, 5-(difluoromethyl)-3-((1-((4-ethyl-2-methyl-6-oxo-1,6-dihydropyrimidin-5-yl)methyl)-6-oxo-4-(1,1,2,2-tetrafluoroethyl)-1,6-dihydropyrimidin-5-yl)oxy)-2-methylbenzonitrile]", "values": [
      {"measurement": "EC50", "setting": "Homo sapiens, PBMC", "value": 485, "unit": "nM"}
    ]}
  ]
}
